Measurements: article PMC10562414, “GLP-1R signaling neighborhoods associate with the susceptibility to adverse drug reactions of incretin mimetics” (Nature Communications, 2023)

Tested on: GLP-1R-expressing HEK293 cells (phosphoproteome)
Assay: Phosphoproteomics time course (5, 15, 30, 60 min) in GLP-1R-expressing cells
Format: cell-based, human
Method: P values were calculated by a two-sided unpaired t-test.
HEK293 cells (350,000 cells/mL) were transfected in suspension using 3 μg of linear PEI (MW 25,000) per 1 μg of plasmid DNA and seeded onto poly-D-lysine-coated 60 mm dishes at a density of 1,750,000 cells per dish. After a 24-h incubation, cells were washed twice with PBS and placed in starvation media (DMEM with penicillin/streptomycin). After a 48-h incubation, cells were washed twice with HBSS and maintained in the same buffer. […] Cell extracts were prepared as previously described[64]–[66]. In short, 200 μL of the lysis buffer preheated at 95 °C (4% sodium dodecyl sulfate in 50 mM Tris adjusted to pH 8.5) was added to the cells. The samples were then denatured at 95 °C for 10 min, placed on ice and then sonicated using a probe sonicator (3 sec on, 3 sec off pulse, 1 min, 30% amplitude) (Branson). Lysate protein concentration was determined using the Pierce bicinchoninic acid assay kit (Thermo Fisher Scientific) according to the manufacturer’s instructions. The lysates were reduced using 5 mM dithiothreitol for 1 h at room temperature and alkylated using 15 mM iodoacetamide for 1 h at room temperature in the dark. Proteins were precipitated and digested on beads using MagReSyn Amine magnetic beads (ReSyn Biosciences) according to the manufacturer’s instructions. Protein digestion was conducted overnight at 37 °C with lysyl endopeptidase (LysC, Wako) (1:150 LysC/protein, w/w) and trypsin (1:300 trypsin/protein, w/w). 20% TFA, 2 M glycolic acid in 80% ACN were added to the samples at a 1:1 ratio for phosphopeptide enrichment using MagReSyn TiO2 magnetic beads (ReSyn Biosciences) according to the manufacturer’s instructions. The enriched phosphopeptides were dried overnight in a SpeedVac, resuspended into 5% formic acid (FA), desalted using StageTip (Thermo Fisher Scientific) according to the manufacturer’s instructions and dried in a SpeedVac. The experiment was performed in biological triplicates.
All parameters and settings regarding the acquisition of the proteomics data can be found in Supplementary Data 11, 12. For data acquisition, the instrument was set to peptide mode, with a trapping pressure set as low (2mTorr). An EASY-Spray Source (Thermo Fisher Scientific) was used and the column temperature was maintained with the integrated, temperature-controlled heater at 55 °C throughout the experiment. For the data presented in Fig. 5d, the column was heated at 50 °C following the manufacturer’s instructions (IonOpticks).
Acquired raw files were converted to mzML format by MSConvert (version 3.0.21258)[67] applying peak picking of the mass spectra with the vendor-provided algorithm (Thermo Fisher Scientific). The mzML files were analyzed using the FragPipe GUI v18 for both library and DIA search. […] Trypsin with up to 2 missed cleavages was set as digestion enzyme, oxidation of methionine, acetylation of the N-terminus and phosphorylation on serine, threonine and tyrosine (maximal occurrence was set to three) were set as variable modifications. Carbamidomethylation of cysteine residues was set as a fixed modification. Peptide length was restricted to 7 to 50 amino acids, and 500 to 5000 Da. The precursor tolerance was set to ±20 ppm, fragment mass tolerance to 20 ppm and MSBooster was enabled. The resulting peptide-spectrum matches were adjusted to a 1% false discovery rate with Percolator[69] as part of the Philosopher toolkit (v4.4)[70] and converted to a spectra library. DIA files were analyzed by DIA-NN 1.8.1[71], [72] using the previously generated library and monitor-command mode. Peptide quantification was performed based on the fragment elution profiles from the MS2 level (area under the curve).
All further data processing was performed in R (version 4.2.1). Only phosphopeptides with a localization score of at least 0.75 were considered for further analysis. […]

[1] = 15min, relative to time-matched vehicle condition, p.value […], passed.all.criteria 0
[2] = 60min, relative to time-matched vehicle condition, p.value […], passed.all.criteria 0

N#Cc1ccc(COc2cccc(C3CCN(Cc4nc5ccc(C(=O)O)cc5n4C[C@@H]4CCO4)CC3)n2)c(F)c1 [Danuglipron]
regulation of RAB1B and α-synuclein phosphorylation, in words (1 μM): significantly regulated by danuglipron
number of phosphopeptides overlapping between danuglipron and semaglutide treatments (1 μM, 30 min): 8
number of significantly altered phosphopeptides (1 μM, 30 min, drug-specific, vs vehicle): 220
Normalized phosphoproteomics data, ESYT2 S691 (A0FGR8) (5min, repA): 19.6049
Normalized phosphoproteomics data, HMX3 S60 (A6NHT5) (5min, repA): 20.3906
Normalized phosphoproteomics data, HNRNPA1L3 Y250 (A0A2R8Y4L2) (5min, repA): 20.6785
Normalized phosphoproteomics data, POM121C T710 (A8CG34) (5min, repA): 20.0234
Normalized phosphoproteomics data, SBNO1 S794 (A3KN83) (5min, repA): 17.9318
Normalized phosphoproteomics data, ESYT2 S691 (A0FGR8) (5min, repB): 19.6976
Normalized phosphoproteomics data, HMX3 S60 (A6NHT5) (5min, repB): 20.283
Normalized phosphoproteomics data, HNRNPA1L3 Y250 (A0A2R8Y4L2) (5min, repB): 20.3164
Normalized phosphoproteomics data, POM121C T710 (A8CG34) (5min, repB): 20.7371
Normalized phosphoproteomics data, SBNO1 S794 (A3KN83) (5min, repB): 18.211
Normalized phosphoproteomics data, ESYT2 S691 (A0FGR8) (5min, repC): 21.1682
Normalized phosphoproteomics data, HMX3 S60 (A6NHT5) (5min, repC): 19.9991
Normalized phosphoproteomics data, HNRNPA1L3 Y250 (A0A2R8Y4L2) (5min, repC): 20.6414
Normalized phosphoproteomics data, POM121C T710 (A8CG34) (5min, repC): 20.3991
Normalized phosphoproteomics data, SBNO1 S794 (A3KN83) (5min, repC): 18.5685
log2.foldchange, FOXK2 S30 (Q01167) (5min, relative to time-matched vehicle condition, p.value 0.0181801, passed.all.criteria 0): 0.5529
log2.foldchange, EIF3J S11 (O75822) (5min, relative to time-matched vehicle condition, p.value 0.0905175, passed.all.criteria 0): -0.3791
log2.foldchange, SCFD1 S14 (Q8WVM8) (5min, relative to time-matched vehicle condition, p.value 0.889419, passed.all.criteria 0): 0.04613
log2.foldchange, CABLES2 T26;S27 (Q9BTV7) (5min, relative to time-matched vehicle condition, p.value 0.907346, passed.all.criteria 0): 0.07188
log2.foldchange, POLE4 S25 (Q9NR33) (5min, relative to time-matched vehicle condition, p.value […], passed.all.criteria 0): 0.5824
Normalized phosphoproteomics data, ESYT2 S691 (A0FGR8) (15min, repA): 18.6451
Normalized phosphoproteomics data, HMX3 S60 (A6NHT5) (15min, repA): 20.5059
Normalized phosphoproteomics data, HNRNPA1L3 Y250 (A0A2R8Y4L2) (15min, repA): 20.4577
Normalized phosphoproteomics data, POM121C T710 (A8CG34) (15min, repA): 20.5017
Normalized phosphoproteomics data, SBNO1 S794 (A3KN83) (15min, repA): 18.6084
Normalized phosphoproteomics data, ESYT2 S691 (A0FGR8) (15min, repB): 18.4413
Normalized phosphoproteomics data, HMX3 S60 (A6NHT5) (15min, repB): 22.3446
Normalized phosphoproteomics data, HNRNPA1L3 Y250 (A0A2R8Y4L2) (15min, repB): 20.4067
Normalized phosphoproteomics data, POM121C T710 (A8CG34) (15min, repB): 18.6564
Normalized phosphoproteomics data, SBNO1 S794 (A3KN83) (15min, repB): 17.9968
Normalized phosphoproteomics data, ESYT2 S691 (A0FGR8) (15min, repC): 20.8902
Normalized phosphoproteomics data, HMX3 S60 (A6NHT5) (15min, repC): 20.8902
Normalized phosphoproteomics data, HNRNPA1L3 Y250 (A0A2R8Y4L2) (15min, repC): 20.9108
Normalized phosphoproteomics data, POM121C T710 (A8CG34) (15min, repC): 19.3031
Normalized phosphoproteomics data, SBNO1 S794 (A3KN83) (15min, repC): 18.3915
log2.foldchange, EIF3J S11 (O75822) (15min, relative to time-matched vehicle condition, p.value 0.0462694, passed.all.criteria 0): 0.3639
log2.foldchange, SCFD1 S14 (Q8WVM8) (15min, relative to time-matched vehicle condition, p.value 0.844107, passed.all.criteria 0): 0.06372
log2.foldchange, CABLES2 T26;S27 (Q9BTV7) [1]: 0.288
log2.foldchange, FOXK2 S30 (Q01167) [1]: 0.1878
log2.foldchange, POLE4 S25 (Q9NR33) [1]: -0.08464
Normalized phosphoproteomics data, ESYT2 S691 (A0FGR8) (30min, repA): 21.4861
Normalized phosphoproteomics data, HMX3 S60 (A6NHT5) (30min, repA): 20.1311
Normalized phosphoproteomics data, HNRNPA1L3 Y250 (A0A2R8Y4L2) (30min, repA): 20.8036
Normalized phosphoproteomics data, POM121C T710 (A8CG34) (30min, repA): 20.7324
Normalized phosphoproteomics data, SBNO1 S794 (A3KN83) (30min, repA): 18.5741
Normalized phosphoproteomics data, ESYT2 S691 (A0FGR8) (30min, repB): 20.3489
Normalized phosphoproteomics data, HMX3 S60 (A6NHT5) (30min, repB): 20.2063
Normalized phosphoproteomics data, HNRNPA1L3 Y250 (A0A2R8Y4L2) (30min, repB): 19.9638
Normalized phosphoproteomics data, POM121C T710 (A8CG34) (30min, repB): 20.3008
Normalized phosphoproteomics data, SBNO1 S794 (A3KN83) (30min, repB): 18.1584
Normalized phosphoproteomics data, ESYT2 S691 (A0FGR8) (30min, repC): 19.608
Normalized phosphoproteomics data, HMX3 S60 (A6NHT5) (30min, repC): 21.342
Normalized phosphoproteomics data, HNRNPA1L3 Y250 (A0A2R8Y4L2) (30min, repC): 21.4798
Normalized phosphoproteomics data, POM121C T710 (A8CG34) (30min, repC): 19.571
Normalized phosphoproteomics data, SBNO1 S794 (A3KN83) (30min, repC): 18.2269
log2.foldchange, POLE4 S25 (Q9NR33) (30min, relative to time-matched vehicle condition, p.value 0.0332159, passed.all.criteria 0): 0.4522
log2.foldchange, CABLES2 T26;S27 (Q9BTV7) (30min, relative to time-matched vehicle condition, p.value 0.0661459, passed.all.criteria 0): -0.4521
log2.foldchange, TRAF2 T7;S11 (Q12933) (30min, relative to time-matched vehicle condition, p.value 0.177246, passed.all.criteria 0): 1.124
log2.foldchange, FOXK2 T13 (Q01167) (30min, relative to time-matched vehicle condition, p.value 0.184134, passed.all.criteria 0): -0.3505
log2.foldchange, SCFD1 S14 (Q8WVM8) (30min, relative to time-matched vehicle condition, p.value […], passed.all.criteria 0): -0.2911
Normalized phosphoproteomics data, ESYT2 S691 (A0FGR8) (60min, repA): 20.822
Normalized phosphoproteomics data, HMX3 S60 (A6NHT5) (60min, repA): 21.3332
Normalized phosphoproteomics data, HNRNPA1L3 Y250 (A0A2R8Y4L2) (60min, repA): 20.6441
Normalized phosphoproteomics data, POM121C T710 (A8CG34) (60min, repA): 20.5636
Normalized phosphoproteomics data, SBNO1 S794 (A3KN83) (60min, repA): 19.2753
Normalized phosphoproteomics data, ESYT2 S691 (A0FGR8) (60min, repB): 21.3269
Normalized phosphoproteomics data, HMX3 S60 (A6NHT5) (60min, repB): 22.1586
Normalized phosphoproteomics data, HNRNPA1L3 Y250 (A0A2R8Y4L2) (60min, repB): 20.7268
Normalized phosphoproteomics data, POM121C T710 (A8CG34) (60min, repB): 20.6117
Normalized phosphoproteomics data, SBNO1 S794 (A3KN83) (60min, repB): 18.9035
Normalized phosphoproteomics data, ESYT2 S691 (A0FGR8) (60min, repC): 21.6663
Normalized phosphoproteomics data, HMX3 S60 (A6NHT5) (60min, repC): 20.1861
Normalized phosphoproteomics data, HNRNPA1L3 Y250 (A0A2R8Y4L2) (60min, repC): 20.5504
Normalized phosphoproteomics data, POM121C T710 (A8CG34) (60min, repC): 19.5289
Normalized phosphoproteomics data, SBNO1 S794 (A3KN83) (60min, repC): 18.62
log2.foldchange, POLE4 S25 (Q9NR33) (60min, relative to time-matched vehicle condition, p.value 0.629383, passed.all.criteria 0): 0.05873
log2.foldchange, SCFD1 S14 (Q8WVM8) (60min, relative to time-matched vehicle condition, p.value 0.819487, passed.all.criteria 0): -0.06624
log2.foldchange, CABLES2 T26;S27 (Q9BTV7) [2]: -0.3341
log2.foldchange, EIF3J S11 (O75822) [2]: -0.413
log2.foldchange, TRAF2 T7;S11 (Q12933) [2]: 0.4682
